Columns and labels:
[1] = test system: 212 bp NdeI–HpaI fragment of pSP73KB DNA; assay: Transcription mapping of DNA adducts (T7 RNA polymerase); format: biochemical; conditions: in the dark; rb=0.01
Protocol: Sequence preference of DNA adducts: Transcription mapping experiments were performed to determine the DNA binding sites for Pt complexes. The experiments were carried out using a linear 212 bp DNA fragment (sequence in Figure 9 B), randomly modified by transplatin (8), cisplatin (7), 5 or 6 in the dark or by 1 and 2 photoactivated with blue light (420 nm) at rb=0.01 (rb is defined as the number of the molecules of platinum complex coordinated per nucleotide residue), for RNA synthesis by T7 RNA polymerase (Figure 9 A, lanes 8, 7, 5, 6, 1 and 2, respectively). RNA synthesis on the template modified by the platinum complexes produced fragments of defined sizes (Figure 9 A), which indicate the sites where RNA synthesis was prematurely terminated. It should be noted that RNA synthesis by T7 RNA polymerase is prematurely terminated only due to the platinum adducts on the template strand.[23] […] The ability to bind to A and C sites is consistent with the result from AMP and CMP binding experiments (Figure S18 in the Supporting Information).
Figure 9 Inhibition of RNA synthesis by T7 RNA polymerase on the NdeI–HpaI fragment of pSP73KB plasmid DNA modified by complexes 5 or 6, cisplatin (7) or transplatin (8) in the dark, or with photoactivated 1 or 2 (420 nm light). A) Autoradiogram of a polyacrylamide (6 %)/urea (8 M) sequencing gel. […]
assayed by differential pulse polarography for free, unbound platinum.[16] The amount of platinum bound to DNA was calculated by subtracting the amount of free (unbound) platinum from the total amount of platinum present in the reaction. […]
This fragment contained T7 RNA polymerase promoter (in the upper strand close to its 3'-end). […] The fragments produced in RNA synthesis on the template modified by the platinum complexes were analysed by a 6% polyacrylamide/8M urea sequencing gel.
Quantification of DNA adducts […]
Platinum associated with DNA was assessed by flameless atomic absorption […]
Quantification of DNA interstrand cross-links […]

A2780 cells = assay: SRB proliferation assay for non-light-sensitive complexes, A2780; format: cell-based, human; conditions: ambient light, 24 h exposure, 72 h recovery
Protocol: Cytotoxicity of platinum(II) precursors: To investigate the relationship between the Pt^IV diazidodihydroxido complexes and their Pt^II dichlorido analogues trans-[PtCl2(Am1)(Am2)] (where Am=amine), the cytotoxicities of complexes trans-[PtCl2(MA)(Py)] (5) and trans-[PtCl2(MA)(Tz)] (6) towards A2780 and its cisplatin resistant sub-line A2780cis were determined. The toxicity was not photoinduced, as the complexes are not photoactive. Complexes 5 and 6 are highly cytotoxic towards A2780 and A2780cis cells compared to the reported trans-Pt^II compounds.[18]–[22] Complex 5 is about three-times more cytotoxic than complex 6 towards A2780 cells. […]
Cell Culture and Proliferation Assay for Non-light-sensitive Complexes
The A2780 ovarian cell line was obtained from the ECACC (European Collection of Animal Cell Culture, Salisbury, United Kingdom). The cells were maintained in RPMI 1640 media, which was supplemented with 10% foetal calf serum, 1% L-glutamine, and 1% penicillin/streptomycin. All cells were grown at 310 K in an humidified atmosphere containing 5% CO2. Stock solutions of the Pt complexes were freshly prepared in DMSO to assist dissolution and then diluted into saline and medium (maximum final concentration of DMSO 1% and saline 6%). After plating 5000 A2780 cells per well on day 1, Pt complexes were added to the cancer cells on day 3 at concentrations ranging from 0.01 to 100 µM, depending on the preliminary activity data obtained in screening assays. Cells were exposed to the complexes for 24 h, washed with PBS, supplied with fresh medium, and allowed to grow for three doubling times (72 h), and then the protein content (proportional to cell survival) was measured using the sulforhodamine B (SRB) assay.[7] The standard errors are based on two independent experiments of three replicates each.[8]

Compound | Sequence specificity [1] | IC50 (A2780 cells) [µM]
C[NH2+][Pt@SP3-2]([Cl])([Cl])[n+]1ccsc1 [Complex 6, trans-[PtCl2(MA)(Tz)]] | stop sites mainly at G and C and G, C | 6.9 ± 2.3
C[NH2+][Pt@SP3-2]([Cl])([Cl])[n+]1ccccc1 [Complex 5, trans-[PtCl2(MA)(Py)]] | stop sites mainly at G and C and G, C | 2.4 ± 0.7
